In patent publication US9801889B2, “Bicyclic heterocycles as FGFR4 inhibitors” (Incyte Corporation, priority 2015, dated 2017):

How the values were obtained:
Conditions in all cases: IC50 ratio showing FGFR4 selectivity
FGFR2 = FGFR2 (Homo sapiens (Human), UniProt P21802); test: FGFR Enzymatic Assay (FRET peptide phosphorylation), FGFR2
Excerpt: (§1) The enzymes were purchased from Millipore or Invitrogen.
(§2) GraphPad prism3 was used to analyze the data. The IC50 values were derived by fitting the data to the equation for a sigmoidal dose-response with a variable slope. Y=Bottom+(Top-Bottom)/(1+10^((LogIC50-X)*HillSlope)) where X is the logarithm of concentration and Y is the response.

FGFR1 = FGFR1 (Homo sapiens (Human), UniProt P11362); test: FGFR Enzymatic Assay (FRET peptide phosphorylation), FGFR1
Excerpt: as §1, §2

FGFR3 = FGFR3 (Homo sapiens (Human), UniProt P22607); test: FGFR Enzymatic Assay (FRET peptide phosphorylation), FGFR3
FGFR3, sequence (P22607 23-806): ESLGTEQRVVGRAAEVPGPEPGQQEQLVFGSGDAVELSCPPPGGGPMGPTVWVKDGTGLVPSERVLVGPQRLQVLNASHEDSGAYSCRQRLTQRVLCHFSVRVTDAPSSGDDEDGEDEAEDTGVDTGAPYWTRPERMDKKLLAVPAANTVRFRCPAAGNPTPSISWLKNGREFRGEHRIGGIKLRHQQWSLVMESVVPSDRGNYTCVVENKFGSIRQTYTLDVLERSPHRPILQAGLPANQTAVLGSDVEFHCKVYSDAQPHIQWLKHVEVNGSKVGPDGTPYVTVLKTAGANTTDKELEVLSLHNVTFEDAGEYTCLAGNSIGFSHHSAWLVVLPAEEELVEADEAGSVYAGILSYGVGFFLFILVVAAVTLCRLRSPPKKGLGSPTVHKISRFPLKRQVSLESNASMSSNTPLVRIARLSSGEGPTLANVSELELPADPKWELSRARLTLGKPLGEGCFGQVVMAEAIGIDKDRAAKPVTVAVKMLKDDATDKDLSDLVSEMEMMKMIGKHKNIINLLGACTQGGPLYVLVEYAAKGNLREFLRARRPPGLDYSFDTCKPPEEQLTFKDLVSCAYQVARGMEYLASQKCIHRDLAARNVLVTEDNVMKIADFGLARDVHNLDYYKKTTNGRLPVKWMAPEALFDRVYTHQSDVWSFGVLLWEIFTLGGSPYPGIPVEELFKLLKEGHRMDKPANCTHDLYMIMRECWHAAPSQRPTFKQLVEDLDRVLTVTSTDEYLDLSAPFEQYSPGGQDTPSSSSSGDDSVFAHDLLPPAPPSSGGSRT
Excerpt: as §1, §2

[1] = pre-incubated for 5 to 10 minutes

FGFR1, sequence (P11362 22-822): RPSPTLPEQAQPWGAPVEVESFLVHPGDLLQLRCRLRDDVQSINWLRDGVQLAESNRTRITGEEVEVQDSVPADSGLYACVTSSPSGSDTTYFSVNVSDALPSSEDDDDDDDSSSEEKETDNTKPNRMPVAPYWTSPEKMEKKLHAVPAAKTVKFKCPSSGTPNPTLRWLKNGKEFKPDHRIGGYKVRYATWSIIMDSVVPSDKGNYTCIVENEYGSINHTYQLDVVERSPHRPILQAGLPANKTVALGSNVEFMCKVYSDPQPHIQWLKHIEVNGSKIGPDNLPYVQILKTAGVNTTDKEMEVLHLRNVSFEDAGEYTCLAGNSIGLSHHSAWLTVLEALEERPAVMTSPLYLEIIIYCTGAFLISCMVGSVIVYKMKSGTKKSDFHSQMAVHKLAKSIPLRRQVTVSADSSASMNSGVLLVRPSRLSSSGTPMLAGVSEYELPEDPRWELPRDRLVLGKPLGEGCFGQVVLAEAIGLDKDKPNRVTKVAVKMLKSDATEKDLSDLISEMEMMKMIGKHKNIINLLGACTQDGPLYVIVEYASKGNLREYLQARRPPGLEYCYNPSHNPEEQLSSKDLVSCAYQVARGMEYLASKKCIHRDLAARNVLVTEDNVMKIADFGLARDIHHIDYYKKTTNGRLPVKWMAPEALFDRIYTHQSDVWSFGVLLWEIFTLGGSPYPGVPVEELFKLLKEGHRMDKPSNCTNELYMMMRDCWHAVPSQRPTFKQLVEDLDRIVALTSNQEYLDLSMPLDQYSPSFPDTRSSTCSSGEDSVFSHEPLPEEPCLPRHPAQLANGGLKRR
FGFR2, sequence (P21802 22-821): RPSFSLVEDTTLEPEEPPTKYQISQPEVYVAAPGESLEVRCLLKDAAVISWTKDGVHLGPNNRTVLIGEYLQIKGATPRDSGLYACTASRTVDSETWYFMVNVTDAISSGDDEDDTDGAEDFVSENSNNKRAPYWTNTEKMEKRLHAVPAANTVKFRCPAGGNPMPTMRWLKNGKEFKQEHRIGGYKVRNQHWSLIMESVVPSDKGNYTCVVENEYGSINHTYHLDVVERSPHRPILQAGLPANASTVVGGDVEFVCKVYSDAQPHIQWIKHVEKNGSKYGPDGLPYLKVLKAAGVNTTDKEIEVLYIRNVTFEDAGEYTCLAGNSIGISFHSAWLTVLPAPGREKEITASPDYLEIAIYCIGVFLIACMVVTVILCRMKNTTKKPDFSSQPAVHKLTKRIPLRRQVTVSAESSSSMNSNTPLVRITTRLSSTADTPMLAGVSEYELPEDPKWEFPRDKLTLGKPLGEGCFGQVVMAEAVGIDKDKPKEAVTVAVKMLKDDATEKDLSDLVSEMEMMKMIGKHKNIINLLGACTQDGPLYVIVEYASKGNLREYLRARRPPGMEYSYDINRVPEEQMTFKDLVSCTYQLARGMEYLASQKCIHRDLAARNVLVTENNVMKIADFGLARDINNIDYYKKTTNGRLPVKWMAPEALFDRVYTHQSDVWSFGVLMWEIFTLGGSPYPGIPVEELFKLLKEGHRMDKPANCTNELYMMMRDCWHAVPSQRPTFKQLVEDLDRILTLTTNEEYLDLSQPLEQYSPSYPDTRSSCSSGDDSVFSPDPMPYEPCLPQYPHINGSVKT

Row | FGFR2/FGFR4 (FGFR2; pre-incubated for 4 hours) | FGFR1/FGFR4 (FGFR1; pre-incubated for 4 hours) | FGFR3/FGFR4 (FGFR3; pre-incubated for 4 hours) | FGFR2/FGFR4 (FGFR2; [1]) | FGFR1/FGFR4 (FGFR1; [1]) | FGFR3/FGFR4 (FGFR3; [1]) | SMILES
1 | >100 | >100 | >100 |  |  |  | C=CC(=O)Nc1cnn(CCOC)c1-c1cc2c(cn1)CN(c1c(F)c(OC)cc(OC)c1F)C(=O)C21CC1 [Example 15, N-(5-(2′-(2,6-difluoro-3,5-dimethoxyphenyl)-3′-oxo-2′,3′-dihydro-1′H-spiro[cyclopropane-1,4′-[2,7]naphthyridine]-6′-yl)-1-(2-methoxyethyl)-1H-pyrazol-4-yl)acrylamide]
2 | >100 | >100 | >100 |  |  |  | C=CC(=O)Nc1cnn(CCN2CCOCC2)c1-c1cc2c(cn1)CN(c1c(F)c(OC)cc(OC)c1F)C(=O)C21CC1 [Example 19, N-(5-(2′-(2,6-difluoro-3,5-dimethoxyphenyl)-3′-oxo-2′,3′-dihydro-1′H-spiro[cyclopropane-1,4′-[2,7]naphthyridine]-6′-yl)-1-(2-morpholinoethyl)-1H-pyrazol-4-yl)acrylamide]
3 | >100 | >100 | >100 |  |  |  | C=CC(=O)Nc1cn[nH]c1-c1cc2c(cn1)CN(c1c(F)c(OC)cc(OC)c1F)C(=O)C21CC1 [Example 14, N-(5-(2′-(2,6-difluoro-3,5-dimethoxyphenyl)-3′-oxo-2′,3′-dihydro-1′H-spiro[cyclopropane-1,4′-[2,7]naphthyridine]-6′-yl)-1H-pyrazol-4-yl)acrylamide]
4 | >100 | >100 | >100 |  |  |  | C=CC(=O)Nc1cn(CC(=O)N(C)C)nc1-c1cc2c(cn1)CN(c1c(F)c(OC)cc(OC)c1F)C(=O)C21CC1 [Example 36, N-(3-(2′-(2,6-difluoro-3,5-dimethoxyphenyl)-3′-oxo-2′,3′-dihydro-1′H-spiro[cyclopropane-1,4′-[2,7]naphthyridine]-6′-yl)-1-(2-(dimethylamino)-2-oxoethyl)-1H-pyrazol-4-yl)acrylamide]
5 | >100 | >100 | >100 |  |  |  | C=CC(=O)Nc1cn(CCN2CCOCC2)nc1-c1cc2c(cn1)CN(c1c(F)c(OC)cc(OC)c1F)C(=O)C21CC1 [Example 34, N-(3-(2′-(2,6-difluoro-3,5-dimethoxyphenyl)-3′-oxo-2′,3′-dihydro-1′H-spiro[cyclopropane-1,4′-[2,7]naphthyridine]-6′-yl)-1-(2-morpholinoethyl)-1H-pyrazol-4-yl)acrylamide]
6 | >100 | >100 | >100 |  |  |  | C=CC(=O)Nc1cnn(Cc2ccon2)c1-c1cc2c(cn1)CN(c1c(F)c(OC)cc(OC)c1F)C(=O)C21CC1 [Example 25, N-(5-(2′-(2,6-difluoro-3,5-dimethoxyphenyl)-3′-oxo-2′,3′-dihydro-1′H-spiro[cyclopropane-1,4′-[2,7]naphthyridine]-6′-yl)-1-(isoxazol-3-ylmethyl)-1H-pyrazol-4-yl)acrylamide]
7 | >100 | >100 | >100 |  |  |  | C=CC(=O)Nc1cnn(C[C@@H]2CCOC2)c1-c1cc2c(cn1)CN(c1c(F)c(OC)cc(OC)c1F)C(=O)C21CC1 [Example 28, (S)-N-(5-(2′-(2,6-difluoro-3,5-dimethoxyphenyl)-3′-oxo-2′,3′-dihydro-1′H-spiro[cyclopropane-1,4′-[2,7]naphthyridine]-6′-yl)-1-((tetrahydrofuran-3-yl)methyl)-1H-pyrazol-4-yl)acrylamide]
8 | >100 | >100 | >100 | >100 | >100 | >100 | C=CC(=O)Nc1cc(-c2cc3c(cn2)CN(c2c(F)c(OC)cc(OC)c2F)C(=O)C32CC2)c(C)cc1F [Example 6, N-(5-(2′-(2,6-difluoro-3,5-dimethoxyphenyl)-3′-oxo-2′,3′-dihydro-1′H-spiro[cyclopropane-1,4′-[2,7]naphthyridine]-6′-yl)-2-fluoro-4-methylphenyl)acrylamide]
9 | >2 | >10 | >2 | >1 | >5 | >1 | C=CC(=O)N1CCCC(c2cc3c(cn2)CN(c2c(F)c(OC)cc(OC)c2F)C(=O)C32CC2)C1 (stereo not drawn) [Example 8, 6′-(1-acryloylpiperidin-3-yl)-2′-(2,6-difluoro-3,5-dimethoxyphenyl)-1′H-spiro[cyclopropane-1,4′-[2,7]naphthyridin]-3′(2′H)-one]
10 | >100 | >100 | >100 |  |  |  | C=CC(=O)Nc1cnn(CCO)c1-c1cc2c(cn1)CN(c1c(F)c(OC)cc(OC)c1F)C(=O)C21CC1 [Example 17, N-(5-(2′-(2,6-difluoro-3,5-dimethoxyphenyl)-3′-oxo-2′,3′-dihydro-1′H-spiro[cyclopropane-1,4′-[2,7]naphthyridine]-6′-yl)-1-(2-hydroxyethyl)-1H-pyrazol-4-yl)acrylamide]
11 | >100 | >100 | >100 | >100 | >100 | >100 | C=CC(=O)Nc1ccc(C#N)c(-c2cc3c(cn2)CN(c2c(F)c(OC)cc(OC)c2F)C(=O)C32CC2)c1 [Example 5, N-(4-cyano-3-(2′-(2,6-difluoro-3,5-dimethoxyphenyl)-3′-oxo-2′,3′-dihydro-1′H-spiro[cyclopropane-1,4′-[2,7]naphthyridine]-6′-yl)phenyl)acrylamide]
12 | >100 | >100 | >100 | >100 | >100 | >100 | C=CC(=O)Nc1ccc(C)c(-c2cc3c(cn2)CN(c2c(F)c(OC)cc(OC)c2F)C(=O)C32CC2)c1 [Example 2, N-(3-(2′-(2,6-difluoro-3,5-dimethoxyphenyl)-3′-oxo-2′,3′-dihydro-1′H-spiro[cyclopropane-1,4′-[2,7]naphthyridine]-6′-yl)-4-methylphenyl)acrylamide]
13 | >50 | >100 | >100 |  |  |  | C=CC(=O)Nc1cnn(Cc2ccnn2C)c1-c1cc2c(cn1)CN(c1c(F)c(OC)cc(OC)c1F)C(=O)C21CC1 [Example 26, N-(5-(2′-(2,6-difluoro-3,5-dimethoxyphenyl)-3′-oxo-2′,3′-dihydro-1′H-spiro[cyclopropane-1,4′-[2,7]naphthyridine]-6′-yl)-1-((1-methyl-1H-pyrazol-5-yl)methyl)-1H-pyrazol-4-yl)acrylamide]
14 | >100 | >100 | >100 |  |  |  | C=CC(=O)Nc1cnn(Cc2cccnc2)c1-c1cc2c(cn1)CN(c1c(F)c(OC)cc(OC)c1F)C(=O)C21CC1 [Example 22, N-(5-(2′-(2,6-difluoro-3,5-dimethoxyphenyl)-3′-oxo-2′,3′-dihydro-1′H-spiro[cyclopropane-1,4′-[2,7]naphthyridine]-6′-yl)-1-(pyridin-3-ylmethyl)-1H-pyrazol-4-yl)acrylamide]
15 | >100 | >100 | >100 | >100 | >100 | >100 | C=CC(=O)Nc1cc(CN2CCOCC2)cc(-c2cc3c(cn2)CN(c2c(F)c(OC)cc(OC)c2F)C(=O)C32CC2)c1 [Example 11, N-[3-[2′-(2,6-difluoro-3,5-dimethoxyphenyl)-3′-oxo-2′,3′-dihydro-1′H-spiro[cyclopropane-1,4′-[2,7]naphthyridin]-6′-yl]-5-(morpholin-4-ylmethyl)phenyl]acrylamide]
16 | >100 | >100 | >100 |  |  |  | C=CC(=O)Nc1cnn(C[C@@H]2CCCO2)c1-c1cc2c(cn1)CN(c1c(F)c(OC)cc(OC)c1F)C(=O)C21CC1 [Example 31, (S)-N-(5-(2′-(2,6-difluoro-3,5-dimethoxyphenyl)-3′-oxo-2′,3′-dihydro-1′H-spiro[cyclopropane-1,4′-[2,7]naphthyridine]-6′-yl)-1-((tetrahydrofuran-2-yl)methyl)-1H-pyrazol-4-yl)acrylamide]
17 | >100 | >100 | >100 | >100 | >100 | >100 | C=CC(=O)Nc1cnc(C)c(-c2cc3c(cn2)CN(c2c(F)c(OC)cc(OC)c2F)C(=O)C32CC2)c1 [Example 7, N-(5-(2′-(2,6-difluoro-3,5-dimethoxyphenyl)-3′-oxo-2′,3′-dihydro-1′H-spiro[cyclopropane-1,4′-[2,7]naphthyridine]-6′-yl)-6-methylpyridin-3-yl)acrylamide]
18 | >100 | >100 | >100 |  |  |  | C=CC(=O)Nc1cn(CCOC(F)(F)F)nc1-c1cc2c(cn1)CN(c1c(F)c(OC)cc(OC)c1F)C(=O)C21CC1 [Example 33, N-(3-(2′-(2,6-difluoro-3,5-dimethoxyphenyl)-3′-oxo-2′,3′-dihydro-1′H-spiro[cyclopropane-1,4′-[2,7]naphthyridine]-6′-yl)-1-(2-(trifluoromethoxy)ethyl)-1H-pyrazol-4-yl)acrylamide]

Row | SMILES | FGFR2/FGFR4 (FGFR2; pre-incubated for 4 hours) | FGFR1/FGFR4 (FGFR1; pre-incubated for 4 hours) | FGFR3/FGFR4 (FGFR3; pre-incubated for 4 hours) | FGFR2/FGFR4 (FGFR2; [1]) | FGFR1/FGFR4 (FGFR1; [1]) | FGFR3/FGFR4 (FGFR3; [1])
19 | C=CC(=O)Nc1cnn(C2CCOCC2)c1-c1cc2c(cn1)CN(c1c(F)c(OC)cc(OC)c1F)C(=O)C21CC1 [Example 18, N-(5-(2′-(2,6-difluoro-3,5-dimethoxyphenyl)-3′-oxo-2′,3′-dihydro-1′H-spiro[cyclopropane-1,4′-[2,7]naphthyridine]-6′-yl)-1-(tetrahydro-2H-pyran-4-yl)-1H-pyrazol-4-yl)acrylamide] | >50 | >100 | >100 |  |  | 
